Reference: patent US20250034211A1, “C-TERMINAL EXTENDED P53 ACTIVATOR CROSSLINKED PEPTIDOMIMETIC MACROCYCLES AGAINST MDM2/MDMX” (Merck Sharp & Dohme LLC, priority 2021, published 2025)
In brackets after ≈: the same amount, converted by molar mass. Where two headings read alike, the source gives them in different places. Where a SMILES comes first, the peptide text is derived from it. Bridges are numbered along the chain shown (N, C = ends). [ ]: non-standard residue; d: D form. Lys(N3) = [N-]=[N+]=NCCCC[C@H](N)C(=O)O; Gla = N[C@@H](CC(C(=O)O)C(=O)O)C(=O)O; R8 = C=CCCCCCC[C@@](C)(N)C(=O)O; Cba = N[C@@H](CC1CCC1)C(=O)O; S5 = C=CCCC[C@](C)(N)C(=O)O; Aib = CC(C)(N)C(=O)O; βAla = NCCC(=O)O

Assays:
[1] = molecular target: T1, MDM2 (1-125; SEQ ID NO 14) (Homo sapiens, UniProt Q00987); test: MDM2 binding assay (fluorescence anisotropy competition, FP)
T1 construct: GST (N); His6 (internal); TEV cleavage site ENLYFQG (internal); made in house; host or cells: E. coli BL21 (DE3) Rosetta T1R
T1 sequence (Q00987 with tags, fused parts or gaps): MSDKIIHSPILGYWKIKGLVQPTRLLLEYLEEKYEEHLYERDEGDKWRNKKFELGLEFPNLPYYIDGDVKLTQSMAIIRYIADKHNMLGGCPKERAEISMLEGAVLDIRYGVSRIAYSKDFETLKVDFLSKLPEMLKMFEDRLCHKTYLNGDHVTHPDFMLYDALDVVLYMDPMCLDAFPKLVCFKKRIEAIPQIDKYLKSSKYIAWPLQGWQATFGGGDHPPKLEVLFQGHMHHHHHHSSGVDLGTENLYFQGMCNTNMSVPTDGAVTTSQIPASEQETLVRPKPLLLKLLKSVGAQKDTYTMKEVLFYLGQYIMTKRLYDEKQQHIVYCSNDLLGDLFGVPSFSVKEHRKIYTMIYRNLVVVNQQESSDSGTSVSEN
Description: [P] is the protein concentration (MDM2), [L] is the labeled peptide concentration, r is the anisotropy measured, r0 is the anisotropy of the free peptide, rb is the anisotropy of the MDM2-FAM-labeled peptide complex, Kd is the dissociation constant, [L]t is the total FAM labeled peptide concentration, and [P]t is the total MDM2 concentration. […] The competing molecules were then titrated against the complex of the FAM-labeled peptide and protein. Apparent Kd values were determined by fitting the experimental data to the equations shown below:
[L]st and [L]t denote labeled ligand and total unlabeled ligand input concentrations, respectively. Kd2 is the dissociation constant of the interaction between the unlabeled ligand and the protein. In all competition experiments, it is assumed that [P]t>[L]st, otherwise considerable amounts of free labeled ligand would always be present and would interfere with measurements. […] The FAM-labeled peptide was dissolved in dimethyl sulfoxide (DMSO) at 1 mM and diluted into experimental buffer. Readings were carried out with an Envision Multilabel Reader (PerkinElmer). […] All titrations were carried out in triplicate. Curve-fitting was carried out using Prism 4.0 (GraphPad). […] Negative control titrations of the ligands under investigation were also carried out with the fluorescently labeled peptide (in the absence of MDM2) to ensure no interactions were occurring between the ligands and the FAM-labeled peptide.

HCT116 cells = test: Lactate dehydrogenase release assay (LDH); type: cell-based
Description: HCT116 cells were seeded into a 384-well plate at a density of 8000 cells per well. Cells were maintained in McCoy's 5A Medium with 10% fetal bovine serum (FBS), Blasticidin and Penicillin/Streptomycin. The cells were incubated overnight followed by the removal of cell media and the addition of Opti-MEM Medium without FBS. Cells were then treated with peptides for 4/16 hours in Opti-MEM either in 10% FBS or serum free. Final concentration of DMSO was 0.5%. Lactate dehydrogenase release was detected using CytoTox-ONE Homogenous Membrane Integrity Assay Kit (Promega) as per manufacturer's instructions. Measurements were carried out using Tecan plate reader. Maximum LDH release was defined as the amount of LDH released induced by the lytic peptide (iDNA79) and used to normalize the results.

[2] = system: Jump-In T-REx CHO-K1 BLA cells; test: Tetracycline beta-lactamase reporter gene assay (counter screen); type: cell-based
Description: Based on Jump-In™ T-REx™ CHO-K1 BLA cells and contain a stably integrated β-lactamase under the control of an inducible CMV promoter. Cells were seeded into a 384-well plate a density of 4000 cells per well. Cells were maintained in Dulbecco's Minimal Eagle Medium (DMEM) with 10% fetal bovine serum (FBS), Blasticidin and Penicillin/Streptomycin. The cells were incubated for 24 hours, followed by cell media removal and replacement with Opti-MEM either containing 10% FBS or 0% FBS. Peptides were then dispensed to each well using a liquid handler, ECHO 555 and incubated for 4/16 hours. Final working concentration of DMSO was 0.5%. β-Lactamase activity was detected using the ToxBLAzer Dual Screen (Invitrogen) as per manufacturer's instructions. Measurements were carried out using Envision multiplate reader (Perkin Elmer). Counter Screen activity was defined as the amount of 0-lactamase activity induced by tetracycline.

[3] = Circular dichroism (CD) helicity; type: physicochemical
Description: The dried peptide was reconstituted in a buffer containing 1 mM HEPES pH 7.4 and 5% methanol to a concentration of 1 mM. The peptide sample was placed in a quartz cuvette with a path length of 0.2 cm and a CD spectrum was recorded from 300 to 190 nm at 25° C. using the Chirascan-plus qCD machine (Applied Photophysics). The actual concentration of the peptide was determined by the absorbance of the peptide at […]. An estimate of the secondary structure components of the peptide was carried out by converting the CD spectrum to mean residue ellipticity before deconvoluting using the CDNN software (distributed by Applied Photophysics). All experiments were done in duplicate.

p53 null Ca Ski = conditions: for % inhibition at maximum concentration in p53 null negative control cell line: maximum assay concentration (50 uM); for p53 null Ca Ski proliferation % Max: 72 h, 10% serum
Solubility (PBS, pH 7) = conditions: for solubility: PBS, pH 7
[4] = system: p53 (HCT116 cells stably transfected with a p53 responsive β-lactamase reporter); test: p53 beta-lactamase reporter gene cellular functional assay; type: cell-based
Description: HCT116 cells were stably transfected with a p53 responsive β-lactamase reporter, and were seeded into a 384-well plate at a density of 8,000 cells per well. Cells were maintained in McCoy's 5A Medium with 10% fetal bovine serum ([…]), Blasticidin and Penicillin/Streptomycin. The cells were incubated overnight and followed by removal of cell growth media and replaced with Opti-MEM either containing 0% FBS or 10% FBS. Peptides were then dispensed to each well using a liquid handler, ECHO 555 and incubated for 4/16 hours. Final working concentration of dimethyl sulfoxide (DMSO) was 0.5%. β-Lactamase activity was detected using the ToxBLAzer Dual Screen (Invitrogen) as per manufacturer's instructions. Measurements were done using Envision multiplate reader (Perkin-Elmer). Maximum p53 activity was defined as the amount of β-lactamase activity induced by 50 μM azide-ATSP-7041 (stapled p53 peptide; Aileron Therapeutics, Inc.). This was determined as the highest amount of p53 activity induced by azide-ATSP-7041 by titration on HCT116 cells.

| Structure (SMILES) | Kd [1] [µM] | EC50 (HCT116 cells; 0% FBS, 4 h) [µM] | EC50 (HCT116 cells; 10% FBS, 16 h) [µM] | EC50 ([2]; 0% FBS, 4 h) [µM] | EC50 ([2]; 10% FBS, 16 h) [µM] | CD (% helicity) [3] [%] | % inhibition at maximum concentration in p53 null negative control cell line (p53 null Ca Ski) [%] | logD (HPLC LogD) | solubility (in words) (Solubility (PBS, pH 7)) | solubility (Solubility (PBS, pH 7)) [µM] | EC50 ([4]; 10% serum at 16 hours) [µM] | HCT116 proliferation % Max (HCT116; 72 h, 10% serum) [%] | fold improvement in HTC116 cell proliferation assay (HCT116; as compared to Macrocycle 3) | EC50 (HCT116; read-out: HCT116 proliferation EC50, 72 h, 10% serum) [µM] | p53 null Ca Ski proliferation % Max (p53 null Ca Ski) [%] | chromatographic logD (HPLC LogD) | EC50 (HCT116; read-out: cellular efficacy in cell proliferation HTC116 p53 positive control cell lines) [µM] | EC50 (p53 null Ca Ski; read-out: EC50 in p53 null negative control cell line) [µM] | EC50 ([4]; 0% serum at 4 hours) [µM] |
| --- | --- | --- | --- | --- | --- | --- | --- | --- | --- | --- | --- | --- | --- | --- | --- | --- | --- | --- | --- |
| CC(=O)N[C@@H](CCCCN=[N+]=[N-])C(=O)NCCC(=O)N[C@@H](CC(C)C)C(=O)N[C@H](C(=O)N[C@@H](Cc1ccccc1)C(=O)N[C@]1(C)CCCCCCC=CCCC[C@@](C)(C(=O)N[C@@H](C)C(=O)N[C@@H](C)C(=O)N[C@@H](Cc2ccccc2)C(=O)NC(C)(C)C(=O)N[C@@H](C)C(=O)N[C@@H](C)C(N)=O)NC(=O)[C@H](CC2CCC2)NC(=O)[C@H](CCC(N)=O)NC(=O)[C@H](C)NC(=O)[C@H](Cc2c[nH]c3ccccc23)NC(=O)[C@H](Cc2ccc(O)cc2)NC(=O)[C@H](CCC(=O)O)NC1=O)[C@@H](C)O [Macrocycle 8, Ac-K(N3)-betaAla-L-T-F-X1a-E-Y-W-A-Q-Cba-X2a-AAF-Aib-AA-NH2(olefinstaple from X1ato X2a)] (Ac-[Lys(N3)][βAla]LTF[R8]EYWAQ[Cba][S5]AAF[Aib]AA-NH2; staple 6-13) | 0.0074 | 16.7 | > 50 | > 50 | > 50 | 35 | – | – | – | – | – | – | – | – | – | – | – | – | – |
| CC(=O)N[C@@H](CCCCN=[N+]=[N-])C(=O)NCCC(=O)N[C@@H](CC(C)C)C(=O)N[C@H](C(=O)N[C@@H](Cc1ccccc1)C(=O)N[C@]1(C)CCCCCCC=CCCC[C@@](C)(C(=O)N[C@@H](C)C(=O)N[C@@H](C)C(=O)N[C@@H](CCC(=O)O)C(=O)N[C@@H](C)C(=O)N[C@@H](C)C(=O)N[C@H](C)C(N)=O)NC(=O)[C@H](CC2CCC2)NC(=O)[C@H](CCC(N)=O)NC(=O)[C@H](C)NC(=O)[C@H](Cc2c[nH]c3ccccc23)NC(=O)[C@H](Cc2ccc(O)cc2)NC(=O)[C@H](CCC(=O)O)NC1=O)[C@@H](C)O [Macrocycle 10, Ac-K(N3)-betaAla-L-T-F-X1a-E-Y-W-A-Q-Cba-X2a-AAEAA-(D-Ala)-NH2(olefinstaple from X1ato X2a)] (Ac-[Lys(N3)][βAla]LTF[R8]EYWAQ[Cba][S5]AAEAA[dA]-NH2; staple 6-13) | 0.0031 | > 50 | > 50 | – | – | – | −18 | 2.14 | excellent solubility | 154 (≈ 343 µg/mL) | – | – | – | – | – | – | – | – | – |
| CC(=O)N[C@@H](CCCCN=[N+]=[N-])C(=O)NCCC(=O)N[C@@H](CC(C)C)C(=O)N[C@H](C(=O)N[C@@H](Cc1ccccc1)C(=O)N[C@]1(C)CCCCCCC=CCCC[C@@](C)(C(=O)N[C@@H](CC(C(=O)O)C(=O)O)C(=O)N[C@@H](C)C(=O)N[C@@H](C)C(=O)N[C@@H](C)C(=O)N[C@@H](C)C(=O)N[C@@H](C)C(N)=O)NC(=O)[C@H](CC2CCC2)NC(=O)[C@H](CCC(N)=O)NC(=O)[C@H](C)NC(=O)[C@H](Cc2c[nH]c3ccccc23)NC(=O)[C@H](Cc2ccc(O)cc2)NC(=O)[C@H](CCC(=O)O)NC1=O)[C@@H](C)O [Macrocycle 11, Ac-K(N3)-betaAla-L-T-F-X1a-E-Y-W-A-Q-Cba-X2a-(Gla)AAAAA-NH2(olefinstaple from X1ato X2a)] (Ac-[Lys(N3)][βAla]LTF[R8]EYWAQ[Cba][S5][Gla]AAAAA-NH2; staple 6-13) | 0.00032 | > 50 | > 50 | > 50 | > 50 | – | −18 | – | excellent solubility | 163 (≈ 370 µg/mL) | 0.527 | 73 | at least 2 fold | 0.79 | −18 | 2.25 | – | – | – |
| CC(=O)N[C@@H](CCCCN=[N+]=[N-])C(=O)NCCC(=O)N[C@@H](CC(C)C)C(=O)N[C@H](C(=O)N[C@@H](Cc1ccccc1)C(=O)N[C@]1(C)CCCCC#CC#CCCC[C@@](C)(C(=O)N[C@@H](C)C(=O)N[C@@H](C)C(=O)N[C@@H](C)C(=O)N[C@@H](C)C(=O)N[C@@H](C)C(=O)N[C@@H](C)C(N)=O)NC(=O)[C@H](CC2CCC2)NC(=O)[C@H](CCC(N)=O)NC(=O)[C@H](C)NC(=O)[C@H](Cc2c[nH]c3ccccc23)NC(=O)[C@H](Cc2ccc(O)cc2)NC(=O)[C@H](CCC(=O)O)NC1=O)[C@@H](C)O [Macrocycle 12, Ac-K(N3)-betaAla-L-T-F-X1b-E-Y-W-A-Q-Cba-X2b-AAAAAA-NH2 (di-alkyne staple from X1b to X2b)] | – | > 50 | > 50 | > 50 | > 50 | – | 3 | – | – | – | – | 72 | – | – | 3 | 2.69 | 0.124 | > 50 | – |
| CC(=O)N[C@@H](CCCCN=[N+]=[N-])C(=O)NCCC(=O)N[C@@H](CC(C)C)C(=O)N[C@H](C(=O)N[C@@H](Cc1ccccc1)C(=O)N[C@]1(C)CCCCCCC=CCCC[C@@](C)(C(=O)N[C@@H](C)C(=O)N[C@@H](C)C(=O)N[C@@H](C)C(N)=O)NC(=O)[C@H](CC2CCC2)NC(=O)[C@H](CCC(N)=O)NC(=O)[C@H](C)NC(=O)[C@H](Cc2c[nH]c3ccccc23)NC(=O)[C@H](Cc2ccc(O)cc2)NC(=O)[C@H](CCC(=O)O)NC1=O)[C@@H](C)O [Reference Macrocycle 1, Ac-K(N3)-betaAla-L-T-F-X1a-E-Y-W-A-Q-Cba-X2a-AAA-NH2 (olefin staple from X1a to X2a), reference compound] (Ac-[Lys(N3)][βAla]LTF[R8]EYWAQ[Cba][S5]AAA-NH2; staple 6-13) | 0.036 | > 50 | – | > 50 | – | – | – | 2.93 | – | 108 (≈ 211 µg/mL) | 0.847 | – | – | – | – | – | – | – | 0.339 |
